# Results from ChEMBL document CHEMBL1212761, “Biologic activities of the TolC-like protein of Neisseria meningitidis as assessed by functional complementation in Escherichia coli” (2010).
# How the values were obtained:
# Format in all cases: functional
# [1] = test system: Neisseria meningitidis; experiment: Antimicrobial activity against Neisseria meningitidis M7 by agar dilution method
# [2] = test system: Neisseria meningitidis; experiment: Antimicrobial activity against Neisseria meningitidis M7tolC::Kan mtr::Spc by agar dilution method
# [3] = test system: Neisseria meningitidis; experiment: Antimicrobial activity against Neisseria meningitidis M7mtrE::Spc by agar dilution method
# [4] = test system: Neisseria meningitidis; experiment: Antimicrobial activity against Neisseria meningitidis M7tolC::Kan by agar dilution method
# [5] = test system: Escherichia coli; experiment: Antimicrobial activity against Escherichia cloi RAM4100 transfected with pNK1 containg Neisseria meningitidis tolC gene by agar dilution method
# [6] = test system: Escherichia coli; experiment: Antimicrobial activity against Escherichia cloi RAM4100 transfected with pGCC4 containg IPTG-inducible lacZ promoter by agar dilution method
# [7] = test system: Escherichia coli; experiment: Antimicrobial activity against Escherichia cloi RAM1129 transfected with pNK1 containg Neisseria meningitidis tolC gene by agar dilution method
# [8] = test system: Escherichia coli; experiment: Antimicrobial activity against Escherichia cloi RAM1129 transfected with pGCC4 containg IPTG-inducible lacZ promoter by agar dilution method
# [9] = test system: Escherichia coli; experiment: Antimicrobial activity against Escherichia coli RAM1129 by agar dilution method
# [10] = test system: Escherichia coli; experiment: Antimicrobial activity against Escherichia coli RAM4100 by agar dilution method
SMILES,MIC [1],MIC [2],MIC [3],MIC [4],MIC [9],MIC [10],MIC [5],MIC [6],MIC [7],MIC [8]
CC[C@H](C)[C@H](NC(=O)[C@H](CCCCN)NC(=O)[C@H](CCC(=O)O)NC(=O)[C@H](CCCCN)NC(=O)[C@H](CO)NC(=O)[C@H](CCCCN)NC(=O)[C@H](CCCNC(=N)N)NC(=O)[C@H](Cc1ccccc1)NC(=O)[C@H](Cc1ccccc1)NC(=O)[C@H](CC(=O)O)NC(=O)CNC(=O)[C@H](CC(C)C)NC(=O)[C@@H](N)CC(C)C)C(=O)NCC(=O)N[C@@H](CCCCN)C(=O)N[C@@H](CCC(=O)O)C(=O)N[C@@H](Cc1ccccc1)C(=O)N[C@@H](CCCCN)C(=O)N[C@@H](CCCNC(=N)N)C(=O)N[C@H](C(=O)N[C@H](C(=O)N[C@@H](CCC(N)=O)C(=O)N[C@@H](CCCNC(=N)N)C(=O)N[C@H](C(=O)N[C@@H](CCCCN)C(=O)N[C@@H](CC(=O)O)C(=O)N[C@@H](Cc1ccccc1)C(=O)N[C@@H](CC(C)C)C(=O)N[C@@H](CCCNC(=N)N)C(=O)N[C@@H](CC(N)=O)C(=O)N[C@@H](CC(C)C)C(=O)N[C@H](C(=O)N1CCC[C@H]1C(=O)N[C@@H](CCCNC(=N)N)C(=O)N[C@H](C(=O)N[C@@H](CCC(=O)O)C(=O)N[C@@H](CO)C(=O)O)[C@@H](C)O)C(C)C)[C@@H](C)CC)C(C)C)[C@@H](C)CC [CATHELICIDIN],7.8 µg/mL,1.98 µg/mL,1.98 µg/mL,7.8 µg/mL,,,,,,
O=C(O)c1cn(C2CC2)c2cc(N3CCNCC3)c(F)cc2c1=O [CIPROFLOXACIN],0.02 µg/mL,0.02 µg/mL,0.02 µg/mL,0.02 µg/mL,,,,,,
CC[C@H]1OC(=O)[C@H](C)[C@@H](O[C@H]2C[C@@](C)(OC)[C@@H](O)[C@H](C)O2)[C@H](C)[C@@H](O[C@@H]2O[C@H](C)C[C@H](N(C)C)[C@H]2O)[C@](C)(O)C[C@@H](C)C(=O)[C@H](C)[C@@H](O)[C@]1(C)O [ERYTHROMYCIN],,,,,,,300 µg/mL,300 µg/mL,5 µg/mL,5 µg/mL
CC[n+]1c(-c2ccccc2)c2cc(N)ccc2c2ccc(N)cc21.[Br-] [HOMIDIUM BROMIDE],12 µg/mL,0.75 µg/mL,0.75 µg/mL,12 µg/mL,5 µg/mL,> 200 µg/mL,,,> 200 µg/mL,5 µg/mL

# Continued, in another order:
MIC [1],MIC [2],MIC [3],MIC [4],MIC [9],MIC [10],SMILES,MIC [5],MIC [6],MIC [7],MIC [8]
2 µg/mL,0.125 µg/mL,0.125 µg/mL,2 µg/mL,,,CC[C@H]1OC(=O)[C@H](C)[C@@H](O[C@H]2C[C@@](C)(OC)[C@@H](O)[C@H](C)O2)[C@H](C)[C@@H](O[C@@H]2O[C@H](C)C[C@H](N(C)C)[C@H]2O)[C@](C)(O)C[C@@H](C)CN(C)[C@H](C)[C@@H](O)[C@]1(C)O [AZITHROMYCIN],,,,
,,,,1.5 µg/mL,> 40 µg/mL,CN(C)c1ccc(C(=C2C=CC(=[N+](C)C)C=C2)c2ccc(N(C)C)cc2)cc1.[Cl-] [GENTIAN VIOLET],,,> 40 µg/mL,1.5 µg/mL
,,,,40 µg/mL,500 µg/mL,CO[C@@H]1[C@@H](OC(N)=O)[C@@H](O)[C@H](Oc2ccc3c(O)c(NC(=O)c4ccc(O)c(CC=C(C)C)c4)c(=O)oc3c2C)OC1(C)C [NOVOBIOCIN],,,500 µg/mL,40 µg/mL
400 µg/mL,50 µg/mL,50 µg/mL,400 µg/mL,,,CCCCCCCCCCCCCCCC(=O)O [PALMITIC ACID],,,,
